Assays:
KRAS G12C = KRAS G12C (Homo sapiens (Human), UniProt P01116, C118A/G12C); experiment: 2 h coupled exchange assay; type: biochemical; details: Avg 2 h Coupled exchange IC50, 2 h compound pre-incubation
Description: The term “2 h coupled exchange assay” or “20 h coupled exchange assay” as used herein refers to the assay described in the Section entitled “BIOLOGICAL EVALUATION.”

[1] = test system: MIA PaCa-2 (human pancreatic carcinoma) cells; experiment: Cell Viability Assay (CellTiter-Glo), MIA PaCa-2; type: cell-based; details: Homo sapiens, MIA PaCa-2, 72 h
Description: Serially-diluted compound or DMSO was added to the cells, and plates were incubated at 37° C., 5% CO2 for 72 h. Cell viability was measured using a CellTiter-Glo® Luminescent Cell Viability Assay kit (Promega) according to the manufacturer's protocol. The luminescence signal of treated samples was normalized to DMSO control, and data were analyzed using a 4-parameter logistic model to calculate IC50 values.

[2] = test system: A549 (human lung carcinoma) cells; experiment: Cell Viability Assay (CellTiter-Glo), A549; type: cell-based; details: Homo sapiens, A549, 72 h
Method in brief: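 Seeding at 1.67E+04 cells/mL is followed by overnight attachment at 37° C., 5% CO2. Serially diluted compound is added for 72 h. Viability is read by CellTiter-Glo luminescence, scaled to DMSO and fitted (4-parameter logistic) to give IC50.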

[3] = SOS-mediated nucleotide exchange

Chain of KRAS G12C (P01116 other isoform, or with tags, fused parts or gaps G12C/C118A): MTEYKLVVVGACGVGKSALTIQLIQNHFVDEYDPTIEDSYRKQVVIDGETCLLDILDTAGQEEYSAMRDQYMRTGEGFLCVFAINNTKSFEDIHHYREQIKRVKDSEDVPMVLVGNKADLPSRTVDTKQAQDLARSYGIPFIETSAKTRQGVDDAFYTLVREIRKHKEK

Compound	IC50 (KRAS G12C) [µM]	IC50 [1] [µM]	IC50 [2] [µM]	IC50 (KRAS G12C; [3]) [µM]
C=CC(=O)N1CC2(CCN(c3nc4c(c(-c5c(C)ccc6cnn(C)c56)c3C)CC[C@@H](c3c(C)cnn3C)C4)C2)C1 (single isomer, unassigned) [Example 14-98]	0.071	0.08	> 5	–
C=CC(=O)N1CC2(CCN(c3nc4cc(-c5scnc5C)cnc4c(-c4ccccc4Cl)c3C#N)C2)C1 [Example 20-7, 4-(2-chlorophenyl)-7-(4-methyl-1,3-thiazol-5-yl)-2-(2-(2-propenoyl)-2,6-diazaspiro[3.4]octan-6-yl)-1,5-naphthyridine-3-carbonitrile]	0.131	0.534	> 5	–
C=CC(=O)N1CC2(CCN(c3nc4cc(OC)ccc4c(-c4c(C)ccc5[nH]ncc45)c3C#N)C2C)C1 [Example 14-21, 7-methoxy-4-(5-methyl-1H-indazol-4-yl)-2-((5R)-5-methyl-2-(2-propenoyl)-2,6-diazaspiro[3.4]octan-6-yl)-3-quinolinecarbonitrile|7-methoxy-4-(5-methyl-1H-indazol-4-yl)-2-((5S)-5-methyl-2-(2-propenoyl)-2,6-diazaspiro[3.4]octan-6-yl)-3-quinolinecarbonitrile]	0.111	0.447	> 5	–
C=CC(=O)N1CC2(CCN(c3nc4c(c(-c5c(C)ccc6cnn(C)c56)c3C#N)[C@@H]3CC[C@H]4C3)C2)C1 (single isomer, unassigned) [Example 14-15]	–	0.068	> 5	0.049
C=CC(=O)N1CC2(CCN(c3nc(-c4ccccc4F)c4ccn(C)c4n3)C2)C1 [Example 1-32]	–	17.1	12.1	250
C=CC(=O)N1CC2(CCN(c3nc4c(c(-c5c(C)ccc6[nH]ncc56)c3C#N)CCC(C)(C)C4)[C@@H]2CF)C1 (stereo in doubt) [Example 13-79, (M)-2-((5R)-5-(fluoromethyl)-2-(2-propenoyl)-2,6-diazaspiro[3.4]octan-6-yl)-7,7-dimethyl-4-(5-methyl-1H-indaazol-4-yl)-5,6,7,8-tetrahydro-3-quinolinecarbonitrile and (P)-((5S)-5-(fluoromethyl)-2-(2-propenoyl)-2,6-diazaspiro[3.4]octan-6-yl)-7,7-dimethyl-4-(5-methyl-1H-indazol-4-yl)-5,6,7,8-tetrahydro-3-quinolinecarbonitrile]	–	8.23	7.45	0.433
C=CC(=O)N1CC2(CCN(c3cc4ccccc4c(-c4c(C)ccc5[nH]ncc45)c3C#N)C2)C1 [Example 1-2, 3-(2-acryloyl-2,6-diazaspiro[3.4]octan-6-yl)-1-(5-methyl-1H-indazol-4-yl)-2-naphthonitrile]	–	0.58	3.71	0.158
C=CC(=O)N1CC2(CCN(c3cc4c(c(-c5c(C)ccc6cnn(C)c56)c3C#N)COCC4)C2)C1 [Example 2-96, 8-(1,6-dimethyl-1H-indazol-7-yl)-6-(2-(2-propenoyl)-2,6-diazaspiro[3,4]octan-6-yl)-3,4-dihydro-1H-2-benzopyran-7-carbonitrile]	–	0.246	> 5	0.232
C=CC(=O)N1CC2(CCN(c3nc4c(c(-c5ccccc5F)c3C#N)CCN(CC3CCCN3C)C4)C2)C1 [Example 21-29, 4-(2-fluorophenyl)-7-(((2R)-1-methyl-2-pyrrolidinyl)methyl)-2-(2-(2-propenoyl)-2,6-diazaspiro[3.4]octan-6-yl)-5,6,7,8-tetrahydro-1,7-naphthyridine-3-carbonitrile 4-(2-fluorophenyl)-7-(((2S)-1-methyl-2-pyrrolidinyl)methyl)-2-(2-(2-propenoyl)-2,6-diazaspiro[3.4]octan-6-yl)-5,6,7,8-tetrahydro-1,7-naphthyridine-3-carbonitrile]	0.822	4.41	> 25	–
C=CC(=O)N1CC2(CCN(c3nc4c(c(-c5c(C)ccc6cnn(C)c56)c3C#N)C[C@H]3C[C@@H]4C3)C2)C1 [Example 13-110, (1S,9S)-6-(1,6-dimethyl-1H-indazol-7-yl)-4-(2-(2-propenoyl)-2,6-diazaspiro[3.4]octan-6-yl)-3-azatricyclo[7.1.1.0^2,7]undeca-2,4,6-triene-5-carbonitrile]	–	0.524	> 5	0.073
C=CC(=O)N1CC2(CCN(c3nc4cc(-c5scnc5C)ccc4c(-c4ccccc4Cl)c3C#N)C2)C1 [Example 20-1, 4-(2-chlorophenyl)-7-(4-methyl-1,3-thiazol-5-yl)-2-(2-(2-propenoyl)-2,6-diazaspiro[3.4]octan-6-yl)-3-quinolinecarbonitrile]	0.149	1.56	> 5	–
C=CC(=O)N1CC2(CCN(c3nc4c(c(-c5c(C)ccc6[nH]ncc56)c3C)CCN(C3COC3)C4)C2)C1 [Example 18-14, 1-(6-(3-methyl-4-(5-methyl-1H-indazol-4-yl)-7-(3-oxetanyl)-5,6,7,8-tetrahydro-1,7-naphthyridin-2-yl)-2,6-diazaspiro[3.4]octan-2-yl)-2-propen-1-one]	0.376	0.167	> 25	–
C=CC(=O)N1CC2(CCN(c3nc4c(c(-c5ccccc5F)c3C#N)CCN(c3scnc3C)[C@H]4C)C2)C1 [Example 21-6, (8S)-4-(2-fluorophenyl)-8-methyl-7-(4-methyl-1,3-thiazol-5-yl)-2-(2-(2-propenoyl)-2,6-diazaspiro[3.4]octan-6-yl)-5,6,7,8-tetrahydro-1,7-naphthyridine-3-carbonitrile]	0.93	4.57	11.2	–
C=CC(=O)N1CC2(CCN(c3nc4cc(OC)ccc4c(-c4c(C)ccc5cnn(C)c45)c3C)C2)C1 [Example 2-50, 1-(6-(4-(1,6-dimethyl-1H-indazol-7-yl)-7-methoxy-3-methyl-2-quinolinyl)-2,6-diazaspiro[3,4]octan-2-yl)-2-propen-1-one]	–	2.61	> 5	0.466
C=CC(=O)N1CC2(CCN(c3nc4c(c(-c5c(C)ccc6cnn(C)c56)c3C#N)COC(C)(C)C4)C2)C1 [Example 13-49, 4-(1,6-dimethyl-1H-indazol-7-yl)-7,7-dimethyl-2-(2-(2-propenoyl)-2,6-diazaspiro[3.4]octan-6-yl)-7,8-dihydro-5H-pyrano[4,3-b]pyridine-3-carbonitrile]	–	0.442	> 5	0.123
C=CC(=O)N1CC2(CCN(c3nc4cc(-c5scnc5C)ccc4c(-c4ccccc4OC)c3C#N)C2)C1 [Example 20-17, 4-(2-methoxyphenyl)-7-(4-methyl-1,3-thiazol-5-yl)-2-(2-(2-propenoyl)-2,6-diazaspiro[3.4]octan-6-yl)-3-quinolinecarbonitrile]	0.431	1.82	7.58	–
C=CC(=O)N1CC2(CCN(c3nc4c(c(-c5cccc6cccc(C)c56)n3)OCCC4)C2)C1 [Example 1-42, 1-(6-(4-(8-methyl-1-naphthalenyl)-7,8-dihydro-6H-pyrano[3,2-d]pyrimidin-2-yl)-2,6-diazaspiro[3,4]octan-2-yl)-2-propen-1-one]	–	5.92	22.8	0.456

Reference: patent publication US20240059703A1 (AMGEN INC., priority 2021, published 2024)
